Measured values: patent US20190192455A1, “USE OF CELIPROLOL FOR TREATING KYPHOSCOLIOTIC EHLERS-DANLOS SYNDROME” (Assistance Publique-Hospitaux de Paris (AP-HP), priority 2017, published 2019)

Legend:
[1] = system: kyphoscoliotic EDS patient; assay: Case report: celiprolol in prevention of further arterial events in a kyphoscoliotic EDS patient; format: in vivo, human
Text: All ruptures occurred following minor trauma. The right eye ruptured twice, the left eye once only. […] Their family history was remarkable by the death of their only and younger sibling, by spontaneous abdominal aortic rupture. Their phenotype was similar to their […] sibling's.
Physical examination evidenced major cutaneous fragility (bruising) and dystrophic scars. […] furthermore presented a severe kyphoscoliosis and diffuse joint hypermobility (Beighton score 8/9) with instability, particularly of the left shoulder (recurrent dislocations). Further osteoarticular signs were pes planus and minor pectus excavatum. […] The dissecting aneurysm of the celiac trunk also remained stable and a complete regression of the extension of the dissection to the SMA was noted. Two years later, the patient presented with similar pain in the left calf. Doppler ultrasound documented a left tibial anterior dissecting aneurysm. This second clinical event also resolved medically. Celiprolol was initiated and up-titrated to the optimally tolerated dose (400 mg/day) in prevention of further arterial events.

vascular EDS patients = vascular EDS patients taking celiprolol, compared to placebo (Ong et al., 2010); cited from earlier work

## CCN(CC)C(=O)Nc1ccc(OCC(O)CNC(C)(C)C)c(C(C)=O)c1 (stereo not shown) [Celiprolol, N′-(3-Acetyl-4-(3-((1,1-dimethylethyl)amino)-2-hydroxypropoxy)phenyl)-N, N-diethylurea]
[1]; one patient with recurrent arterial dissections, up-titrated to 400 mg/day, 3 years follow-up
  clinical course (arterial events) under celiprolol: remained clinically silent
[1]; same patient, 400 mg/day, 3 years follow-up
  systematic arterial monitoring for silent arterial defects: did not evidence further silent arterial defects
[1]; same patient, four year follow-up
  novel arterial manifestation under celiprolol treatment: without novel arterial manifestation
Vascular EDS patients
  incidence of arterial rupture or dissection: decreased incidence of arterial rupture or dissection
